Results as given in patent US5814628A, “Benzyl-substituted compounds having dopamine receptor affinity” (Allelix Biopharmaceuticals Inc., priority 1996, dated 1998).

What was measured:
[1] = test system: human D2 receptor (short isoform) relative to human D4 receptor (D4.2 sub-type); assay: D4 selectivity: D2 versus D4 receptor binding (displacement of 3H-spiperone); settings: D2/D4 ratio, D2 in GH4 C1 cells, D4 in HEK 298 cells
Experimental: The potency of the test compound to reduce ^3 H-spiperone binding directly correlated to its binding affinity for the receptor. […] When used in the assay, cells were thawed on ice for 20 minutes and then 10 mL of incubation buffer (50 mM Tris, 1 mM EDTA, 4 mM MgCI2, 5 mM KCI, 1.5 mM CaCI2, 120 mM NaCI, pH7.4) was added. […] Concentration of receptor protein was determined using the Pierce BCA assay. […] After 16 hours, fresh media was added to allow the cells to recover for 24 hours. The cells were harvested using versene and then centrifuged in a Sorval centrifuge for 10 minutes, at 5000 rpm (GS3 rotor). Pellets were quickly frozen in liquid nitrogen and stored at -80° C. until used in the binding assays. When used in the assay, cells were thawed on ice for 20 minutes. […] The receptor protein concentration was determined using the Pierce BCA assay. […] The tubes were vortexed and incubated at room temperature for 90 minutes. The binding reaction was stopped by filtering using a Brandell Cell Harvester. The samples were filtered under vacuum over glass fibre filters (Whatman GF/B) presoaked for 2 hours in 0.3% polyethylenimine (PEI) in 50 mM Tris buffer (pH7.4). The filters were then washed 3 times with 5 mL ice cold 50 mM Tris buffer (pH7.4). Individual filter disks were put in scintillation vials (Biovials, Bechman). […] The tubes were vortexed and incubated at room temperature for 90 minutes at which time the binding reaction was stopped by filtering. The filters were washed and counted using the same procedure as in the total binding assay described above to give the non-specific binding value (NSB). […] The tubes were vortexed and incubated at room temperature for 90 minutes at which time the binding reaction was stopped by filtering. The filters were washed and counted using the same procedure as in the total binding assay described above to give the displacement binding value (BD). […] IC50 was determined from an inhibition response curve, logit-log plot of %B/B0 vs concentration of test compound.

[2] = target: T1, human D4 receptor (D4.2 sub-type) (Homo sapiens, UniProt P21917, DEL265-296); assay: D4 receptor-binding affinity (displacement of 3H-spiperone); settings: 3H-spiperone 0.25 nM, HEK 298 cell membranes, Cheng and Prustoff transformation
T1 construct: expressed in transfected cells; host or cells: HEK 298 (human embryonic kidney); homogenate used
T1 sequence (P21917 with tags, fused parts or gaps DEL265-296): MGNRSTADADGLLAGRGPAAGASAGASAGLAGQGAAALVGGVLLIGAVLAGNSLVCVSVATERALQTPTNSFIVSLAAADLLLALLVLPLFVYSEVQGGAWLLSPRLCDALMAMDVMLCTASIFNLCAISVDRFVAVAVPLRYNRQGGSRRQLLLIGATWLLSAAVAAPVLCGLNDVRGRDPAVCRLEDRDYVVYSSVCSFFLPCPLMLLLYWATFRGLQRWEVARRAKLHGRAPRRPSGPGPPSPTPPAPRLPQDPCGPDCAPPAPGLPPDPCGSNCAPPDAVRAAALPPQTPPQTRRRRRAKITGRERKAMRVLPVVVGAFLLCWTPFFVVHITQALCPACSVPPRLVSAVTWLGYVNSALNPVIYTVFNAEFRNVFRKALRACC
Experimental: The potency of the test compound to reduce ^3 H-spiperone binding directly correlated to its binding affinity for the receptor.
The cells were then centrifuged in a Sorval centrifuge for 10 minutes, 5000 rpm (GS3 rotor) and the pellets quickly frozen in liquid nitrogen and stored at -80° C. until used in binding assay.
Concentration of receptor protein was determined using the Pierce BCA assay.
The tubes were vortexed and incubated at room temperature for 90 minutes. The binding reaction was stopped by filtering using a Brandell Cell Harvester. The samples were filtered under vacuum over glass fibre filters (Whatman GF/B) presoaked for 2 hours in 0.3% polyethylenimine (PEI) in 50 mM Tris buffer (pH7.4). The filters were then washed 3 times with 5 mL ice cold 50 mM Tris buffer (pH7.4). Individual filter disks were put in scintillation vials (Biovials, Bechman).
The tubes were vortexed and incubated at room temperature for 90 minutes at which time the binding reaction was stopped by filtering. The filters were washed and counted using the same procedure as in the total binding assay described above to give the non-specific binding value (NSB).
The incubation was started by the addition to 12×75 mm polypropylene tubes 500 μl (50 μg protein) membrane homogenate to a solution of 400 μl incubation buffer, 100 μl (0.25 final conc.) ^3 H-spiperone (90Ci/mmol, Amersham, diluted in borosilicate glass vial to) and […] of test compound that was prepared from 1 mM stock dissolved in DMSO and stored at -20° C. in polypropylene cryogenic storage vials until dilution in incubation buffer in borosilicate glass vials. The tubes were vortexed and incubated at room temperature for 90 minutes at which time the binding reaction was stopped by filtering. The filters were washed and counted using the same procedure as in the total binding assay described above to give the displacement binding value (BD).
IC50 was determined from an inhibition response curve, logit-log plot of %B/B0 vs concentration of test compound.
Ki was calculated by the Cheng and Prustoff transformation: […]
where [L] is the concentration of ^3 H-spiperone used in the assay and KD is the dissociation constant of ^3 H-spiperone determined independently under the same binding conditions.

[3] = test system: D4 receptor relative to the D2 receptor; settings: marketed products, background section; cited from earlier work
D4 receptor = settings: marketed products, background section; read-out: D4 affinity, Ki value; cited from earlier work

Row | Structure (SMILES) | D2/D4 [1] | Ki [2] [nM] | preference for binding the D4 receptor relative to the D2 receptor [3] | Ki (D4 receptor) [nM]
1 | N#Cc1cccc(CN2CCN(C3=Nc4ccccc4Oc4ccccc43)CC2)c1 [11-[4-(3-cyanobenzyl)-1-piperazinyl]dibenz[b,f][1,4]oxazepine] | 21.7 | 134 | – | –
2 | Clc1ccc2c(c1)N=C(N1CCN(Cc3ccccc3)CC1)c1ccccc1O2 [8-Chloro-11-(4-benzyl-1-piperazinyl)-dibenz[b,f][1,4]oxazepine] | 31.7 | 19 | – | –
3 | CN1CCN(C2=Nc3cc(Cl)ccc3Oc3ccccc32)CC1 [isoloxapine] | – | – | about 10 fold | ~20
4 | N#Cc1ccc(CN2CCN(C3=Nc4ccccc4Oc4ccccc43)CC2)cc1 [11-[4-(4-cyanobenzyl)-1-piperazinyl]dibenz[b,f][1,4]oxazepine] | 90.1 | 108 | – | –
5 | N#Cc1ccccc1CN1CCN(C2=Nc3ccccc3Oc3ccccc32)CC1 [11-[4-(2-cyanobenzyl)-1-piperazinyl]dibenz[b,f][1,4]oxazepine] | 16.1 | 519 | – | –
